Molecules are shown by their SMILES.

One assay deals with T1, Neuropeptide Y receptor type 5 (Homo sapiens, UniProt Q15761).
T1 sequence (Q15761 whole entry): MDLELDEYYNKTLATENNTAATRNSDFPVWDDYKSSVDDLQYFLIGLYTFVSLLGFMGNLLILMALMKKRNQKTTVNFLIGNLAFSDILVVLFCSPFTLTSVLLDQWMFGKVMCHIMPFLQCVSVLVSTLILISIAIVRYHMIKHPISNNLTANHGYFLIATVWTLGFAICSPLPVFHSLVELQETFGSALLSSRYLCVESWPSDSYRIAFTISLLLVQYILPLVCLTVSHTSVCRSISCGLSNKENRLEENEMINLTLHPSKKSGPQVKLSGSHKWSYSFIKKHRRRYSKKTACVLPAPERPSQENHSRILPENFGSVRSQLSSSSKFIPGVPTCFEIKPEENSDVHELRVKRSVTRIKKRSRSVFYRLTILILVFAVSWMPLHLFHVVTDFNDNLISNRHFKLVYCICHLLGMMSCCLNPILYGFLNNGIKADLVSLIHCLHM
The assay can be described thus: Inhibition of 125 I-PYY binding to human Neuropeptide Y receptor type 5.
Usually IC50 stands for the concentration that gives 50% inhibition. Consider `COc1ccc2c(c1)CC(NCC1CCN(C(=O)CNS(=O)(=O)c3cccc4ccccc34)CC1)CCC2` (stereo not drawn), for which the half-inhibitory concentration (IC50) was 3.7 nM.
Still for that read-out and setting: then `COc1ccc2c(c1)C(O)(CNCCC1CCN(CCNS(=O)(=O)c3cccc4ccccc34)CC1)CCC2` (stereo not drawn), with 24 nM; and `COc1ccc2c(c1)CC(NCC1CCN(C(=O)Cn3c(=O)sc4ccc(Cl)cc43)CC1)CCC2` (stereo not drawn), with 0.7 nM; and `COc1ccc2c(c1)C(O)(CNCC1CCN(CCNS(=O)(=O)c3cccc(Cl)c3C)CC1)CCC2` (stereo not drawn), with 11 nM.
The compound `COc1ccc2c(c1)CC(O)(CNCC1CCN(CCNS(=O)(=O)c3cccc4ccccc34)CC1)CCC2` (stereo not drawn) displayed a concentration for half-maximal inhibition (IC50) of 56 nM.
Compound `COc1ccc2c(c1)CC(CNC(=O)C1CCN(C(=O)Cn3c(=O)sc4ccc(Cl)cc43)CC1)CCC2` (stereo not drawn) displayed a half-maximal inhibitory concentration (IC50) of 1.2 nM.
`COc1ccc2c(c1)C(O)(CNCC1CCN(CCNS(=O)(=O)c3cccc(C)c3)CC1)CCC2` (stereo not drawn) showed an IC50 of 13 nM.
On the same count and under the same terms, then `COc1ccc2c(c1)C(O)(CNCC1CCN(CCNS(=O)(=O)c3cccc4ccccc34)CC1)CCC2` (stereo not drawn), with 0.54 nM; and `COc1ccc2c(c1)C(O)(CNC(=O)C1CCN(C(=O)Cn3c(=O)sc4ccc(Cl)cc43)CC1)CCC2` (stereo not drawn), with 1 nM; and `COc1ccc2c(c1)C(O)(CNCC1CCN(CCNS(=O)(=O)c3cccc4ccccc34)CC1)CC2` (stereo not drawn), with 66 nM.
On the same count and under the same terms, then `COc1ccc2c(c1)C(O)(CNCC1CCN(C(=O)Cn3c(=O)sc4ccc(Cl)cc43)CC1)CCC2` (stereo not drawn), with 28 nM; and `O=C(Nc1nccs1)C1CCN(C(=O)Cn2c(=O)sc3ccc(Cl)cc32)CC1` [FR-73966], with 53 nM.

A further assay addresses T2, Neuropeptide Y receptor type 1 (Homo sapiens, UniProt P25929).
T2 sequence (P25929 whole entry): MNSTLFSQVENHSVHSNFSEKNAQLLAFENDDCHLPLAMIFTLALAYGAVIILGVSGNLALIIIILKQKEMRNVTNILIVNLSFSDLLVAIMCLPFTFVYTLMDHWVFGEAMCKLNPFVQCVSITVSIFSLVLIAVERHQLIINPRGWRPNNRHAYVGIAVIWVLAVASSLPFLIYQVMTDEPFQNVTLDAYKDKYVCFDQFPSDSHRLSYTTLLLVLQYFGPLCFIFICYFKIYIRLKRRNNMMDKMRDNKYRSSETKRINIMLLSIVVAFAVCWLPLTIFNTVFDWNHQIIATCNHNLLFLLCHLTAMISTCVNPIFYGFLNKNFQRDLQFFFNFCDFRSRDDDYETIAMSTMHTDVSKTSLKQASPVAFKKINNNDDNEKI
The assay can be described thus: Compound was evaluated for the inhibitory activity against human Neuropeptide Y receptor type 1.
The compound `COc1ccc2c(c1)CC(NCC1CCN(C(=O)Cn3c(=O)sc4ccc(Cl)cc43)CC1)CCC2` (stereo not drawn) gave an IC50 of 12000 nM.

The values above are taken from ChEMBL document CHEMBL1135229, “Novel potent antagonists of human neuropeptide Y Y5 receptors. Part 3: 7-methoxy-1-hydroxy-1-substituted tetraline derivatives” (Bioorg Med Chem Lett, 2002).
